Test results from patent US9476053B2, “Methods and compositions for inhibition of immune responses and autoimmunity” (Dynavax Technologies Corporation, priority 2007, dated 2016).
Read-outs that look alike come from different tables or passages of the source.

Tests used:
[1] = tested on: plasmacytoid dendritic cells (PDCs); format: cell-based, human
[2] = tested on: cells infiltrating inflamed skin; test: Tape-stripping skin inflammation in 129 mice, gene expression of infiltrating cells by Taqman; format: in vivo, mouse; conditions: IRS 100 μg s.c. or i.v. or locally
Procedure: PDC infiltrate the inflamed mouse skin. 129 mice were mechanical stripped 12 times with tape or left untreated as control. After 16 hr mice were euthanized and the skin was collected and digested for 1 hr with a solution containing Liberase 0.28 u/ml and the cellular content was analyzed by flow cytometry. A) depicts an example of the facs plot of plasmacytoid dendritic cells PDC were defined to be CD11c+, […]) Cells infiltrating the skin were stimulated in vitro with an immunostimulatory sequence […] ID NO:125), wherein upper case letters represent PS […] lower case letters represent PO linkages) (1 μM) and IFN-α was measured in the supernatant by ELISA. Cells infiltrating inflamed skin show an IFN-α inflammatory gene signature which is preventable by treatment with IRS. Skin of 129 mice was mechanical inflamed by tape stripping as described in FIG. 39. Mice were stripped only or stripped and treated with IRS (SEQ ID NO:123) (100 μg) either administered s.c. or i.v. or locally on the inflamed skin. A group of mice was left completely untreated to serve as controls. Skin was processed as described in FIG. 39 and RNA was extracted from the infiltrating cells using an RNA kit from Quiagen according to manufacture instruction. Gene expression of specific genes was measured by Taqman. […] IRS can target skin inflammation in vivo.

[3] = tested on: IFN-α production in PDC cells; format: cell-based, human
PDC [4] = test: In vivo PDC sensitivity to glucocorticoid in 129 mice treated with DEX plus CpG plus IRS; set-up: species or system mouse; conditions: DEX 1000 μg plus CpG 50 μg plus IRS 100 μg
Procedure: To investigate whether IRPs comprising an IRS restore in vivo PDC sensitivity to glucocorticoid in mice treated with CpG-TLR9 ligand, 129 mice were treated with the glucocorticoid Dexthametasone (DEX; 1000 μg) alone or DEX (1000 μg) plus a immunostimulatory sequence CpG-C ISS C274 (“ISS”; […]. Viability of the different cell type was evaluated as described in Example 9.
Cells were identified to be PDC by the surface presence of B220, CD11c, and PDCA1 marker. Myeloid dendritic cells were identified as to be CD11c positive and B220 negative. B-cells were identified as B220 positive cells and CD11c negative. Monocytes were identified as CD11b positive. Similar results were obtained using blood (data not shown). […] IRPs comprising an IRS restored in vivo PDC sensitivity to glucocorticoid in mice treated with CpG-TLR9 ligand.

PDC [5] = test: Glucocorticoid induced cell death in lupus prone (NZB×NZW)F1 mice treated with DEX plus IRS; format: in vivo, mouse; conditions: DEX 500 μg plus IRS 100 μg, spleen
Procedure: Next, the ability of immunoregulatory sequences to restore responsiveness to glucocorticoid treatment in lupus prone mice (NZB×NZW)F1 was evaluated.
To test whether IRPs comprising an IRS restore sensitiveness to glucocorticoid induced cell death in autoimmune prone animals, Lupus prone mice (NZB×NZW)F1 mice treated with 500 μg of Dexthametasone (DEX) alone or DEX (500 μg) plus IRS (SEQ ID NO: 123) (100 μg) or DEX (500 μg) plus IRS (SEQ ID NO: 123) (100 μg) or DEX (500 μg) plus CTRL oligo (100 μg). Viability of the different cell type was evaluated as described in Example 9.
Cells were identified to be PDC by the surface presence of B220, CD11c, and PDCA1 marker. Myeloid dendritic cells were identified as to be CD11c positive and B220 negative. B-cells were identified as B220 positive cells and CD11c negative. Monocytes were identified as CD11b positive. […] IRS restored sensitiveness to glucocorticoid induced cell death in autoimmune prone animals.

[6] = influenza virus and SEQ ID NO:123 compared to influenza virus alone, hydroxycortisone 1×10^−8 M
[7] = influenza virus, no hydroxycortisone present

## 5′-TGCTCCTGGAGGGGTTGT-3′ (chemistry not given here) [SEQ ID NO:123]
[1]; HSV plus SEQ ID NO:123 versus HSV
  reduction in the amount of hydroxycortisone necessary to achieve 50% death of PDCs: 37 fold
[1]; ISS plus SEQ ID NO:123 versus ISS
  reduction in the amount of hydroxycortisone necessary to achieve 50% death of PDCs: 23 fold
[1]; combination with influenza virus, hydroxycortisone 1×10^−6 M, 48H
  percent survival of PDCs compared to influenza virus alone: statistically significant decrease
[1]; [6]
  decrease in survival of PDC cells: 23%
[1]; influenza virus plus SEQ ID NO:123 versus influenza virus
  reduction in the amount of hydroxycortisone necessary to achieve 50% death of PDCs: 204 fold
[1]; [7]
  difference in PDC survival: no difference
[2]
  IFN-α inflammatory gene signature of cells infiltrating inflamed skin: preventable
[3]; [6]
  IFN-α production inhibited: 92%
[3]; [7]
  IFN-α inhibition: completely inhibited
PDC [4]
  in vivo PDC sensitivity to glucocorticoid in mice treated with CpG-TLR9 ligand: restored
PDC [5]
  sensitiveness to glucocorticoid induced cell death in autoimmune prone animals: restored
